Assay results from patent US7323303B2, “Modified β-lactamases and uses thereof” (priority 2003, dated 2008).

Tests used:
[1] = target: T1, E. coli TEM-1 β-lactamase (Escherichia coli, UniProt P62593); test: Drug screening: E166Cf fluorescence in presence of bacterial β-lactamase culture; type: biochemical; design: key: −: Decline in fluorescence signal (presence of beta-lactam hydrolysis); +: No decline in fluorescence signal (absence of beta-lactam hydrolysis); conditions: E. coli TEM-1 culture, undiluted; antibiotic 1.0×10^−4 M; E166Cf 1.2×10^−7 M
T1 construct: made in house; host or cells: E. coli BL21(DE3); whole overnight culture used undiluted, not purified
Experimental: (§1) The use of the E166Cf enzyme in screening bacterial β-lactamases against various β-lactam antibiotics was investigated. The principle of our method is that when both E166Cf and bacterial β-lactamase are incubated with ‘β-lactamase-unstable’ antibiotics, the fluorescence of the E166Cf enzyme will be suppressed because of the greater catalytic efficiency of the bacterial enzyme. In contrast, when bacterial β-lactamases are screened against ‘β-lactamase-resistant’ antibiotics, the fluorescence of the E166Cf enzyme will be enhanced because of the poor hydrolytic activity of the bacterial enzyme. Thus, any β-lactam antibiotic that causes the labeled enzyme to increase its fluorescence intensity in the presence of bacterial β-lactamases can be used in clinical treatments.
The TEM-1 β-lactamase was expressed in E. coli. BL21(DE3). Preparation of the TEM-1 β-lactamase was performed as follows. A bacterial strain was streaked on an agar plate containing 100 μg/ml ampicillin, and the plate was incubated at 37° C. for 24 h. A single bacterial colony from the plate was inoculated into 100 ml of sterilized LB broth (28 g/l) which was then incubated at 37° C. with shaking at 280 rpm overnight. After overnight incubation, the bacterial culture was harvested and stored at −20° C.
(§2) Fluorescence measurements of the E166Cf enzyme in the presence of bacterial cultures and β-lactam antibiotics were performed on a FLUOstar microplate reader (BMG Labtechnologies) equipped with two sample injectors. Excitation and emission filters of 485 and 520 nm respectively were used. For B. cereus penPC β-lactamase, B. licheniformis penP β-lactamase and B. cereus β-lactamase II, the labeled enzymes were mixed with the bacterial cultures, and the mixtures were made up to 300 μl with 50 mM phosphate buffer (pH 7.0) in a 96-well microtiter plate (Corning Costar). For the purpose of comparison, B. subtilis cultures, which produced no β-lactamase, were set up as negative controls. For E. coli. TEM-1 β-lactamase, the labeled enzymes were mixed with the bacterial cultures without dilution. E. coli. cultures, which produced no β-lactamase, were set up as negative controls for comparison. The antibiotics were then added to the bacterial samples by the injectors.
(§3) The results from the time-resolved fluorescence measurements of the labeled enzyme (1.2×10^−7 M) in the presence of various bacterial cultures and β-lactam antibiotics (1.0×10^−4 M) are shown in FIGS. 23 to 26.

E166Cf enzyme = target: T2, E166Cf enzyme (Bacillus cereus, UniProt P00809, E185C); test: Detection of β-lactam antibiotics in milk by E166Cf fluorescence; conditions: untreated milk; E166Cf 1.2×10^−7 M
T2 construct: made in house; host or cells: B. subtilis 1A304 (φ105MU331); then labelled chemically
T2 sequence (P00809 28-306 E185C): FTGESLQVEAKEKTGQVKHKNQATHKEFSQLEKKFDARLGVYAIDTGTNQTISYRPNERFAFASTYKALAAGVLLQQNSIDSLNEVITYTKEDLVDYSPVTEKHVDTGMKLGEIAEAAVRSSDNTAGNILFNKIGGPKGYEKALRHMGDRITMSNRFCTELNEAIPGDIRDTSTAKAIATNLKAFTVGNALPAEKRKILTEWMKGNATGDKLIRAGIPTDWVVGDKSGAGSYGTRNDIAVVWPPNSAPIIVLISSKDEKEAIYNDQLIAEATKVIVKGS
Experimental: Fluorescence measurements of the E166Cf enzyme in milk in the presence of penicillin G and ampicillin were performed on a FLUOstar microplate reader (BMG Labtechnologies) equipped with two sample injectors. Excitation and emission filters of 485 and 520 nm respectively were used. Milk (pasteurized and homogenized, Nestle Dairy Farm) was purchased at a local supermarket. The labeled enzyme was mixed with the milk sample in a 96-well microtiter plate (Corning Costar). The antibiotics were then added to the mixtures by the injectors.
FIGS. 21 and 22 show the results from the time-resolved fluorescence measurements of the labeled enzyme (1.2×10^−7 M) in untreated milk in the presence of various concentrations of penicillin G and ampicillin respectively.

B. cereus β-lactamase II = target: T3, B. cereus β-lactamase II (Bacillus cereus, UniProt P04190); test: Drug screening: E166Cf fluorescence in presence of bacterial β-lactamase culture; type: biochemical; design: key: −: Decline in fluorescence signal (presence of beta-lactam hydrolysis); +: No decline in fluorescence signal (absence of beta-lactam hydrolysis); conditions: antibiotic 1.0×10^−4 M, E166Cf 1.2×10^−7 M
T3 construct: made in house; host or cells: B. subtilis 1A304 (φ105MU331); whole culture used, not purified
Experimental: as §1
(§4) The β-lactamase II, penPC β-lactamase and penP β-lactamase were expressed in B. subtilis 1A304 (φ105MU331). These enzymes were prepared according to the procedures described previously (Reference 7: Thomwell, S. J. East, A. K., Errington, J. An efficient expression and secretion system based on Bacillus subtilis phage phi 105 and its uses for the production for B. cereus β-lactamase I. (1993) Gene 133, 47-53) with slight modifications. A bacterial strain was streaked on an agar plate containing 5 μg/ml chloramphenicol, and the plate was incubated at 37° C. for 24 h. A single bacterial colony from the agar plate was inoculated into 100 ml of sterilized BHY medium (37 g/l brain heart infusion and 5 g/l yeast extract) which was then incubated at 37° C. with shaking at 300 rpm overnight. About 7 ml of overnight inoculum was added to a baffled conical flask containing 100 ml of sterilized BHY medium. The inoculated medium was incubated at 37° C. with shaking at 300 rpm. When the optical density of the bacterial culture at 600 nm reached 3.5 to 4.0, the bacterial culture was heated in a water bath at 51° C. for 5 min. Afterwards, the bacterial culture was incubated at 37° C. with shaking at 300 rpm for a further 6 h. The bacterial culture was then harvested and stored at −20° C.
as §2, §3

[2] = target: T4, B. cereus penPC β-lactamase (Bacillus cereus, UniProt P00809); test: as above; type: biochemical; design: key: −: Decline in fluorescence signal (presence of beta-lactam hydrolysis); +: No decline in fluorescence signal (absence of beta-lactam hydrolysis); conditions: antibiotic 1.0×10^−4 M, E166Cf 1.2×10^−7 M
T4 construct: made in house; host or cells: B. subtilis 1A304 (φ105MU331); whole culture used, not purified
Experimental: as §1, §4, §2, §3

[3] = target: T5, B. licheniformis penP β-lactamase (Bacillus licheniformis, UniProt P00808); test: as above; type: biochemical; design: key: −: Decline in fluorescence signal (presence of beta-lactam hydrolysis); +: No decline in fluorescence signal (absence of beta-lactam hydrolysis); conditions: antibiotic 1.0×10^−4 M, E166Cf 1.2×10^−7 M
T5 construct: made in house; host or cells: B. subtilis 1A304 (φ105MU331); whole culture used, not purified
Experimental: as §1, §4, §2, §3

T1 sequence (P62593 24-286 limits assumed): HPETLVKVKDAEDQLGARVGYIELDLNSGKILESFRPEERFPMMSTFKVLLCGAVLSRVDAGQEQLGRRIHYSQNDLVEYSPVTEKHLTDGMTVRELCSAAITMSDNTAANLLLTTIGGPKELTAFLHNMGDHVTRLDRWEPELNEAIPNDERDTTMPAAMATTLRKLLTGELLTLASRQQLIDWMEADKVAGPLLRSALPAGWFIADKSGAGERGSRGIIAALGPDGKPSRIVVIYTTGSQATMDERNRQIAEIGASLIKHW
T5 sequence (P00808 27-307): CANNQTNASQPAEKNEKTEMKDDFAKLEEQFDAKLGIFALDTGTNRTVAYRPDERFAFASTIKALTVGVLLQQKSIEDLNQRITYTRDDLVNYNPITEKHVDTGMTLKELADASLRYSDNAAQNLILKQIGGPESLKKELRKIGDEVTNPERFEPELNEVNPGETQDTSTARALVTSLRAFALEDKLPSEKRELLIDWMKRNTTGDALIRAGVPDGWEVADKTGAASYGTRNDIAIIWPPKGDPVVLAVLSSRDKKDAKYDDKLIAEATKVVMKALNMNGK
T4 sequence (P00809 28-306): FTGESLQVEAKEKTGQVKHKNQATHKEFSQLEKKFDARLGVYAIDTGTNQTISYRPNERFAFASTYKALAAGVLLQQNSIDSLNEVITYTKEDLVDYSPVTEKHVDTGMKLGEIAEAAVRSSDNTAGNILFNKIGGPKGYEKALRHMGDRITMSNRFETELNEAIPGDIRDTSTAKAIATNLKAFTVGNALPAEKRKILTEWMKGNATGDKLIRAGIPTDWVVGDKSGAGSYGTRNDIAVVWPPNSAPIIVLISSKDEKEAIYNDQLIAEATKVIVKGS
T3 sequence (P04190 31-257): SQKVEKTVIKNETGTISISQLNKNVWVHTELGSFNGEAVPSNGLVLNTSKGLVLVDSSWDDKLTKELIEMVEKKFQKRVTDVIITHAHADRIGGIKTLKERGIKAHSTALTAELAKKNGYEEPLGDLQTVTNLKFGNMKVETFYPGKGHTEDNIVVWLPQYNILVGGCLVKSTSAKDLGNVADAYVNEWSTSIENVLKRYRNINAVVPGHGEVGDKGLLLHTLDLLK

CC1(C)S[C@@H]2[C@H](NC(=O)Cc3ccccc3)C(=O)N2[C@H]1C(=O)O [Penicillin G, penicillin G]
fluorescence signal of E166Cf (beta-lactam hydrolysis) [1]: − | lowest concentration detected by the labeled enzyme (E166Cf enzyme): 10^−6 M | fluorescence signal of E166Cf (beta-lactam hydrolysis) (B. cereus β-lactamase II): − | fluorescence signal of E166Cf (beta-lactam hydrolysis) [2]: − | fluorescence signal of E166Cf (beta-lactam hydrolysis) [3]: −
